Experimental data: patent EP0415924B1, “REGULATION OF CELL PROLIFERATION AND DIFFERENTIATION USING PEPTIDES” (HOLICK, Michael F, priority 1987, dated 1996)

Assays:
[1] = test system: cultured human keratinocytes; experiment: Keratinocyte culture: counts of total cells and basal cells after one week of dosing; format: cell-based; conditions: seven days, dose-dependent, Figures 2-5
Description: Keratinocytes were grown in culture as follows. NIH 3T3 cells were plated at 0.5 x 10⁵ cells per 35-mm tissue-culture dish, and two days later were lethally irradiated with a cobalt-60 source (5000 rads). Keratinocytes were obtained from neonatal foreskin after overnight trypsinization at 4°C and treatment with 0.02% EDTA. Keratinocytes were plated in 2 ml of serum-free medium per dish on the lethally irradiated 3T3 cells. Each experiment was performed on primary or secondary keratinocyte cultures obtained from different skin samples. The serum-free medium consisted of Dulbecco's Modified Eagle's Medium (DMEM) with high (1.8 mM) concentration of calcium (M.A. Bioproducts, Walkersville, MD) containing 7 growth factors: epidermal growth factor (25 ng/ml); hydrocortisone (203 ng/ml); insulin (5 µg/ml); prostaglandin E₁ (50 ng/ml); transferrin (5 µg/ml; prostaglandin E₁ (50 ng/ml); cholera toxin (0.1 µg/ml); (Sigma Chemical Co., St. Louis, MO); and selenous acid (2 ng/ml) (Collaborative Research, Lexington, MA). At one week in culture, hydrocortisone and cholera toxin were removed from the medium, and the dishes were washed with 0.02% EDTA to remove any remaining 3T3 cells. […]
After seven days the cultures were evaluated for their total cell content, number of basal cells, and cornified envelopes as described above. […]

[2] = test system: cultured human keratinocytes; experiment: Keratinocyte differentiation: count of cornified envelopes after one week of dosing; format: cell-based; conditions: dose-dependent, relative to control cultures, Figures 6 and 7
Description: Keratinocytes were grown in culture as follows. NIH 3T3 cells were plated at 0.5 x 10⁵ cells per 35-mm tissue-culture dish, and two days later were lethally irradiated with a cobalt-60 source (5000 rads). Keratinocytes were obtained from neonatal foreskin after overnight trypsinization at 4°C and treatment with 0.02% EDTA. Keratinocytes were plated in 2 ml of serum-free medium per dish on the lethally irradiated 3T3 cells. Each experiment was performed on primary or secondary keratinocyte cultures obtained from different skin samples. The serum-free medium consisted of Dulbecco's Modified Eagle's Medium (DMEM) with high (1.8 mM) concentration of calcium (M.A. Bioproducts, Walkersville, MD) containing 7 growth factors: epidermal growth factor (25 ng/ml); hydrocortisone (203 ng/ml); insulin (5 µg/ml); prostaglandin E₁ (50 ng/ml); transferrin (5 µg/ml; prostaglandin E₁ (50 ng/ml); cholera toxin (0.1 µg/ml); (Sigma Chemical Co., St. Louis, MO); and selenous acid (2 ng/ml) (Collaborative Research, Lexington, MA). At one week in culture, hydrocortisone and cholera toxin were removed from the medium, and the dishes were washed with 0.02% EDTA to remove any remaining 3T3 cells.
In addition, 1,25-(OH)₂D₃ was tested, alone and in combination with PTH (7-34), and PTH (1-34) and PTH (7-34) were tested together. […]

[3] = test system: canine adenylate cyclase system; conditions: cited from earlier work

Q: With `C=C1/C(=C\C=C2/CCC[C@]3(C)[C@@H]([C@H](C)CCCC(C)(C)O)CC[C@@H]23)C[C@@H](O)C[C@@H]1O` [1,25(OH)₂D₃, 1,25-dihydroxyvitamin D₃] as the molecule, how does the “total number of cells and the number of basal cells in the cultures” value [1] read?
A: Its value is “in a dose-dependent manner decreased”.

Q: And the “total number of cornified envelopes (percent of control)” value [2]?
A: Its value is “increased, in a dose-dependent manner”.

Q: What does the source list for “Rat PTH (1-34): rat PTH 1-34 fragment, 5 amino acid sequence difference from the 1-34 region of human and bovine PTH”?
A: activity relative to bovine PTH (1-34) ([3]; more active than bovine PTH (1-34)): 2-4 fold; activity relative to human PTH (1-34) ([3]; more active than human PTH (1-34)): 8-10 fold
